Experimental data taken from PMC12024193, “Engineered Lysin-Derived Peptide as a Potent Antimicrobial for Acne Vulgaris” (Antibiotics, 2025).

What was measured:
S. aureus strain USA300 = assay: One-hour killing assay with or without retinoic acid; assay type: cell-based, Staphylococcus aureus; details: MRSA USA300, 1 h, Tris pH 7.2, 37 °C, triplicate
Method: (§1) Unless stated otherwise, the standard conditions for killing assays involved statically treating exponential phase bacteria at approximately 5 × 10^5 CFU/mL with a lysin-derived peptide at 25 μg/mL in a 96-well microtiter plate under aerobic (S. aureus) or anaerobic conditions (C. acnes and S. aureus) in 20 mM Tris (Fisher Scientific), pH 7.2, for 1 h at 37 °C. For dose–response killing assays, peptide concentrations ranging from 1 up to 125 μg/mL were tested.
For measuring the effect of retinoid on peptide bactericidal activity, S. aureus strain USA300 at 10^6 CFU/mL was treated with or without P156 at 25 μg/mL in buffer supplemented with all-trans-retinoic acid (Sigma-Aldrich) at 0.01–0.1% (w/v).
Each killing assay comprised an untreated control (bacteria absent peptide) for every condition tested. After 1 h, 100 μL directly from the sample, as well as 5 μL of each dilution from a 10-fold serial dilution, were plated on either TSB agar (for S. aureus killing assays using aerobic conditions), rTSB agar (for S. aureus killing assays using anaerobic conditions), or rTSB agar with 2% glycerol (for C. acnes killing assays) in order to quantitate bacterial viability. The LOD for each experiment was 10 CFU/mL, with one exception. […] For statistical analysis, p-values were calculated using an unpaired t-test due to each lysin or peptide dose being compared individually to the untreated group. […]

[1] = test system: C. acnes strain ATCC 6919; assay: Time-kill assay; assay type: cell-based, Cutibacterium acnes; details: 25 μg/mL, 20 mM Tris, pH 7.2, 37 °C, three biological replicates
Method: Using an EchoTherm chilling/heating plate, separate aliquots of both C. acnes strain ATCC 6919 at 10^6 CFU/mL and P156 at 50 μg/mL in 20 mM Tris, pH 7.2, were equilibrated to 37 °C for 10 min in 1.7 mL microcentrifuge tubes. The bacteria and peptide were then combined 1:1 in a microcentrifuge tube to obtain final concentrations of 5 × 10^5 CFU/mL and 25 μg/mL, respectively. An untreated control (bacteria without peptide) was also included. The samples were incubated for a total of 30 min at 37 °C. At 1, 5, 10, 15, 20, 25 and 30 min, an aliquot was removed. Both 100 μL directly from the sample, as well as 5 μL of each dilution from a 10-fold serial dilution, were plated on rTSB agar supplemented with 2% (v/v) glycerol in order to assess bacterial viability. The LOD was 10 CFU/mL. Error bars correspond to ±SEM of three biological replicates. For statistical analysis, p-values were calculated using an unpaired t-test between the untreated group and the peptide-treated group at each time point. ** p < 0.05 and a ≥3-log CFU reduction (with respect to the untreated group).

C. acnes = assay: One-hour killing assay against C. acnes (dose-response; temperature, pH and NaCl variations); assay type: cell-based, Cutibacterium acnes
Method: (§2) Bacterial strains used in this study are outlined in Table 2 and were stored at −80 °C. C. acnes strains were grown in a BACTRON900 anaerobic chamber (Sheldon Manufacturing Inc., Cornelius, OR, USA) at 37 °C to exponential phase in reduced Trypticase Soy Broth (rTSB, BD Biosciences, Franklin Lakes, NJ, USA) supplemented with 2% (v/v) glycerol. S. aureus strains were grown either aerobically or anaerobically at 37 °C to the exponential phase in TSB (aerobic growth) or rTSB (anaerobic growth).
as §1
To evaluate the effect salt has on the antibacterial activity of the peptide, C. acnes strain ATCC 6919 was treated with P156 in buffer supplemented with 0-500 mM NaCl. The bactericidal potency of P156 in a broad pH range was assayed by treating C. acnes strain ATCC 6919 with the peptide in either 20 mM 2-(N-morpholino) ethanesulfonic acid (MES, pH 5.5–6.5; Fisher Scientific), sodium phosphate buffer (NaPO4, pH 6.5–7.0), or Tris (pH 7.0–8.0).
(§3) Temperature-based killing assays were performed by initially thawing a frozen aliquot of P156, which was then stored at 4 °C for a month. This was the only experiment where an aliquot of a lysin-derived peptide was stored for an extended period of time at a temperature other than −80 °C. Next, C. acnes strain ATCC 6919 was treated with the above-mentioned P156 aliquot in buffer at 15 °C to 40 °C. For these experiments, separate aliquots of both the bacteria at 10^6 CFU/mL and peptide at 50 μg/mL were initially equilibrated to the temperature being assayed for 5 min in 1.7 mL microcentrifuge tubes using an EchoTherm chilling/heating plate (Torrey Pines Scientific, Carlsbad, CA, USA). The bacteria and peptide were then mixed together 1:1 in a microcentrifuge tube, yielding respective final concentrations of 5 × 10^5 CFU/mL and 25 μg/mL, and subsequently incubated in the chilling/heating plate for 1 h.
(§4) Each killing assay comprised an untreated control (bacteria absent peptide) for every condition tested. After 1 h, 100 μL directly from the sample, as well as 5 μL of each dilution from a 10-fold serial dilution, were plated on either TSB agar (for S. aureus killing assays using aerobic conditions), rTSB agar (for S. aureus killing assays using anaerobic conditions), or rTSB agar with 2% glycerol (for C. acnes killing assays) in order to quantitate bacterial viability. The LOD for each experiment was 10 CFU/mL, with one exception. For the dose–response killing assay evaluating the collection of peptides against C. acnes, only the 10-fold serial dilutions from each sample were plated, resulting in an LOD of 200 CFU/mL. Experiments performed under anaerobic conditions used agar plates that were reduced overnight. Additionally, buffers for these particular assays were made fresh the day of the experiment and reduced for 2 h prior to use. Error bars correspond to the standard error of the mean (SEM) of two or three biological replicates. For statistical analysis, p-values were calculated using an unpaired t-test due to each lysin or peptide dose being compared individually to the untreated group. Additionally, to ensure clarity in presenting statistical significance, we used three types of statistical markers to highlight differences: ns, not significant, * p < 0.05 and a <3-log CFU reduction (with respect to the untreated group), ** p < 0.05 and a ≥3-log CFU reduction (with respect to the untreated group).

[2] = test system: C. acnes strain ATCC 6919; assay: Storage stability: bactericidal activity after thawing from -80 °C and four weeks at 4 °C; assay type: physicochemical, Cutibacterium acnes; details: thawed from -80 °C, stored four weeks at 4 °C; read-out bactericidal activity at 25 μg/mL against C. acnes ATCC 6919
Method: as §3

S. aureus = assay: One-hour killing assay against S. aureus (aerobic or anaerobic growth); assay type: cell-based, Staphylococcus aureus; details: 20 mM Tris, pH 7.2, 1 h, 37 °C
Method: as §2, §1, §4

[3] = 25 μg/mL, ATCC 6919, 1 h, 37 °C

**Q.** Which “antibacterial effect of retinoic acid alone on S. aureus” value (S. aureus strain USA300; 0.01-0.1% retinoic acid) does the source give for `CC1=C(/C=C/C(C)=C/C=C/C(C)=C/C(=O)O)C(C)(C)CCC1` [retinoic acid, all-trans-retinoic acid, reference compound] here?
**A.** no antibacterial effect

**Q.** For “RRKAKAPRAEIYAQFNKWVYAGGKKLSGLVKRRRR [Peptide P156, variant peptide engineered by adding arginine residues at both the N- and C-terminal ends of the parental peptide PiP01]”, which “log reduction in bacterial CFU in 10 min” value [1] is on record?
**A.** > 5 log

**Q.** What about the “log reduction in bacterial CFU within 1 min” value [1] of the same compound?
**A.** > 3 log

**Q.** What about the “log reduction of bacterial counts at each temperature assayed” value (C. acnes; 25 μg/mL, ATCC 6919, 15-40 °C, 1 h, peptide stored four weeks at 4 °C) of the same compound?
**A.** > 4 logs

**Q.** And the “bactericidal effect at elevated pH levels (up to 7.6)” value (C. acnes; [3])?
**A.** able to eradicate C. acnes

**Q.** What about the “bactericidal effect within pH 6-7” value (C. acnes; [3]) of the same compound?
**A.** complete bacterial eradication

**Q.** And the “log reduction of C. acnes populations in 50 mM NaCl” value (C. acnes; [3])?
**A.** 3 logs

**Q.** What about the “log CFU reduction (below LOD) at under 25 mM NaCl / lower salt concentrations” value (C. acnes; 25 μg/mL, ATCC 6919, 1 h, 37 °C, LOD 10 CFU/mL) of the same compound?
**A.** > 4 log CFU

**Q.** What about the “log reduction of C. acnes CFU counts (below LOD) at 20 °C to 40 °C” value (C. acnes; 25 μg/mL, ATCC 6919, 1 h, peptide stored four weeks at 4 °C, LOD 10 CFU/mL, triplicate) of the same compound?
**A.** > 5 logs

**Q.** And the “antibacterial activity at high salt concentrations” value (C. acnes; 25 μg/mL, ATCC 6919, NaCl, 1 h, 37 °C)?
**A.** lack of antibacterial activity

**Q.** And the “log reduction of CFU counts at ≤50 mM NaCl” value (C. acnes; 25 μg/mL, ATCC 6919, buffer supplemented with NaCl, 1 h, 37 °C, triplicate)?
**A.** > 3 log CFU

**Q.** And the “log kill of all C. acnes strains tested” value (C. acnes; peptide at 5 μg/mL, seven strains, 20 mM Tris, pH 7.2, 1 h, 37 °C)?
**A.** ≥ 3 log

**Q.** And the “log CFU reduction of all C. acnes strains (below LOD)” value (C. acnes; peptide at 25 μg/mL, 20 mM Tris, pH 7.2, 1 h, 37 °C)?
**A.** > 4 log CFU

**Q.** And the “concentration lowering the viability of all C. acnes strains below the LOD” value (C. acnes; seven strains, 20 mM Tris, pH 7.2, 1 h, 37 °C, LOD 200 CFU/mL, duplicate)?
**A.** ≥ 5 µg/mL

**Q.** What about the “stability after four weeks of storage at 4 °C” value [2] of the same compound?
**A.** remains stable and active

**Q.** What about the “log CFU reduction of S. aureus in the presence of 0.01-0.1% retinoic acid” value (S. aureus strain USA300; P156 at 25 μg/mL, LOD 10 CFU/mL) of the same compound?
**A.** > 5 log CFU

**Q.** What about the “lowest concentration reducing CFU counts of all S. aureus strains below the LOD” value (S. aureus; aerobic, strains 8325, USA300, USA400, LOD 10 CFU/mL) of the same compound?
**A.** 5 µg/mL

**Q.** And the “log kill of all S. aureus strains tested” value (S. aureus; peptide at 5 μg/mL)?
**A.** ≥ 3 log

**Q.** What about the “log CFU reduction of all S. aureus strains (below LOD)” value (S. aureus; peptide at 25 μg/mL) of the same compound?
**A.** > 4 log CFU

**Q.** What about the “log kill of MRSA strain USA300 grown under anaerobic conditions” value (S. aureus; peptide at 25 μg/mL, anaerobic, LOD 10 CFU/mL, triplicate) of the same compound?
**A.** > 5 log
